Data from patent publication US20230405005A1, “TREATMENT OF GAIT DYSFUNCTION IN NEURODEGENERATIVE DISEASE” (EIP Pharma, Inc., priority 2020, published 2023).

Columns and labels:
hippocampal neurons = details: hippocampal cell culture; cited from earlier work
CKIε = CKIε (Homo sapiens, UniProt P49674); details: cited from earlier work
CKIδ = CKIδ (Homo sapiens, UniProt P48730); details: cited from earlier work
human subjects [1] = test: EEG beta functional connectivity, corrected Amplitude Envelope Correlation (AECc); type: in vivo
Description: “40 mg” refers to combined neflamapimod patients, including 40 mg BID and 40 mg TID.
These regions, in particular the frontal cortex, receive cholinergic input, including projections from the nucleus basalis of Meynert. Dysfunction of the cholinergic system leads to impaired cortical functional connectivity, which is disruptive to the performance of complex motor functions such as gait. The ability of neflamapimod to improve functional connectivity, as measured by EEG in the experiments described herein, provides further support for the efficacy of neflamapimod to alleviate gait dysfunction.
Functional connectivity analysis, specifically corrected Amplitude Envelope Correlation (AECc), measures interregional communication or so-called ‘functional connectivity’ between different brain regions. In the functional connectivity analysis, a positive neflamapimod treatment effect on AECc in the beta band (13-30 Hz) was identified. Mean AECc beta was increased with neflamapimod TID versus all placebo (p=0.033) and versus placebo TID (p=0.01).

human subjects [2] = test: Personal Care Domain of Clinical Dementia Rating Scale Sum of Boxes (CDR-SB); type: in vivo; details: neflamapimod vs placebo over 16 weeks; p=0.02 (MMRM), FIG. 4
Description: (§1) A double-blind placebo-controlled, 16-week, treatment with neflamapimod was conducted in parallel groups at 22 centers in the US and 2 centers in the Netherlands.
(§2) Inclusion criteria included Mild-to-moderate (MMSE 15-28) probable Dementia with Lewy Bodies by consensus criteria (McKeith et al, Neurology, 2017; 89:88-100), a positive reading of DaTscan™, and have to have been currently receiving cholinesterase inhibitor therapy (>3 months and stable dose >6 weeks). If DaTscan™ was negative, subjects could also be enrolled with history of polysomnography-confirmed REM sleep disorder (6 study participants so enrolled). The study was randomized 1:1 to 40 mg neflamapimod or matching-placebo capsules. Dosing regimen was based on weight: subjects weighing <80 kg received capsules twice-daily (BID) and those weighing ≥80 kg received capsules three-times-a-day (TID).
Secondary clinical endpoints included the following. (a) International Shopping List Test (ISLT); (b) Timed Up and Go Test (TUG), Ten item Neuropsychiatric Inventory (NPI-10); and (c) Clinical Dementia Rating scale Sum-of-Boxes (CDR-SB). The TUG test is useful to measure risk of fall in patients with or at risk of suffering from Parkinson's disease (see e.g., Arch Phys Med Rehabil. 2013 July; 94(7): 1300-1305).

human subjects [3] = test: Timed Up and Go (TUG) test, 16-week placebo-controlled clinical study; type: in vivo; details: 8 and 16 weeks
Description: FIG. 1A illustrates the Timed Up and Go (TUG) test, wherein the time it takes a subject to stand up from a chair, walk three meters, turn around and return to the chair is measured.
as §1, §2
Secondary clinical endpoints included the following. (a) International Shopping List Test (ISLT); (b) Timed Up and Go Test (TUG), Ten item Neuropsychiatric Inventory (NPI-10); and (c) Clinical Dementia Rating scale Sum-of-Boxes (CDR-SB). […]

Sequence of CKIδ (P48730 whole entry, species assumed): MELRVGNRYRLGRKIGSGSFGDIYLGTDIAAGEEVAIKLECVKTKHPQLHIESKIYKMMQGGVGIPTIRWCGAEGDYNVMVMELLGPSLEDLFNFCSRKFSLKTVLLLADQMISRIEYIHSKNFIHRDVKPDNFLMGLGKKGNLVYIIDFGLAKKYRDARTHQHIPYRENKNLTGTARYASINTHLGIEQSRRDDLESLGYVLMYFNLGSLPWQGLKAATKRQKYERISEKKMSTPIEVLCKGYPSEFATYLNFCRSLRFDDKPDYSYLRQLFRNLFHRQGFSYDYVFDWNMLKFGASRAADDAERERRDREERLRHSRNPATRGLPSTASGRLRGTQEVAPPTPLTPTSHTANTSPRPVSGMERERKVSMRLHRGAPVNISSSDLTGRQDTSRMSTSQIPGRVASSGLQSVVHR
Sequence of CKIε (P49674 whole entry, species assumed): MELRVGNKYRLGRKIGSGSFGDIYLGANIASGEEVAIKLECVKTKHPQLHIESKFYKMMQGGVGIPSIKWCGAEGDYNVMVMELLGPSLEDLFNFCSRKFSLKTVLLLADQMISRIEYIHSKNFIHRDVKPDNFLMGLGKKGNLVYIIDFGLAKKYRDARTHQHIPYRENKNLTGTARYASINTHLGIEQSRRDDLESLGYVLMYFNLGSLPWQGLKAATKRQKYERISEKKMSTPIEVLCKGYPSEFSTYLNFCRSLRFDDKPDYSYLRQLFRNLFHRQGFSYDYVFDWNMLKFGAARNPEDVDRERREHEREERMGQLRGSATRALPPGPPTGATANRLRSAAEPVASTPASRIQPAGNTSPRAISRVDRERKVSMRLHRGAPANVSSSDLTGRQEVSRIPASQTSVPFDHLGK

Row | Compound | Effect against amyloid β-derived diffusible ligand (ADDL) induced synaptotoxicity (hippocampal neurons) | Inhibition of casein kinase isoform CKIε (CKIε) | Inhibition of casein kinase isoform CKIδ (CKIδ) | AECc in each of the other bands (human subjects [1]; EEG bands other than beta) | Mean AECc beta (13-30 Hz) functional connectivity (human subjects [1]; neflamapimod TID versus all placebo (p=0.033) and versus placebo TID (p=0.01)) | AECc beta by brain region (human subjects [1]; placebo TID versus neflamapimod TID, frontal p=0.009, temporal p=0.036, parietal p=0.036) | Personal care domain of the CDR sum of boxes (human subjects [2]) | TUG test outcome (human subjects [3]; all neflamapimod (40 mg BID and 40 mg TID) vs all placebo, p=0.044 (MMRM), FIG. 2) | TUG test outcome (human subjects [3]; neflamapimod 40 mg TID vs placebo TID, p=0.024 (MMRM), FIG. 3)
1 | COc1nccc(-c2c(-c3ccc(F)cc3)ncn2C2CCC(O)CC2)n1 (stereo not shown) [SB239063] | ineffective | inhibit | inhibit | – | – | – | – | – | –
2 | O=c1ncn2nc(Sc3ccc(F)cc3F)ccc2c1-c1c(Cl)cccc1Cl [neflamapimod, 5-(2,6-dichlorophenyl)-2-(2,4-difluorophenylthio)-6H-pyrimido[1,6-b]pyridazin-6-one] | positive effects | – | – | stable or slightly improved with no treatment group differences | increased | most prominent in the frontal region | significant positive outcome | significantly improve outcome | significantly improve outcome
